Several values for one entry are separate records, joined by “and”; a condition that tells them apart may be missing. Equal values may be shown once. Read-outs that look alike come from different tables or passages of the source.
Tests used:
[1] = molecular target: T1, human recombinant adrenergic α2A receptor (Homo sapiens, UniProt P08913); test: Adrenergic α2A radioligand binding ([3H]MK-912); conditions: compound at 1 μM; for Inhibition of ligand binding, Adrenergic α2A: 1 µM
T1 construct: expressed in transfected cells; host or cells: insect Sf9 cells
T1 sequence (P08913 1-465): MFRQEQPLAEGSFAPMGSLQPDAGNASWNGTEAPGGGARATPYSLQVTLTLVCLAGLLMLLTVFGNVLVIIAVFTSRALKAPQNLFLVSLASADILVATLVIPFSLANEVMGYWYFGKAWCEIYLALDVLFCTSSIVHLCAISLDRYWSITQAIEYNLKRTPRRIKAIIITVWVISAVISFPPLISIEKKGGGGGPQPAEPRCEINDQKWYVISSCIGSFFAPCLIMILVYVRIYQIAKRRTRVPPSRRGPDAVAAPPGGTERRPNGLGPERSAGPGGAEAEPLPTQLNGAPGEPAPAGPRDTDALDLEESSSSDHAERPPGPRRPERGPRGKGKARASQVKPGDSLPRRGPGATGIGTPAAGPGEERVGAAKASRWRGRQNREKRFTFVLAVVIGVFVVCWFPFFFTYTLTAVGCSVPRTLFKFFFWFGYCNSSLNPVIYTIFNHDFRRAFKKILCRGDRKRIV
In short: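 Sf9-expressed human receptor in 50 mM Tris-HCl pH 7.4, 12.5 mM MgCl2, 2 mM EDTA; compounds at 1 μM or lower (1% DMSO) incubated with 1 nM [3H]MK-912 for 60 min at 25° C. Non-specific binding defined with 10 μM WB-4101; filtered bound radioactivity counted, reported as percent inhibition of specific binding.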

[2] = molecular target: human recombinant serotonin (5-Hydroxytryptamine) 5-HT7 receptor (Homo sapiens, UniProt P34969); test: Serotonin 5-HT7 radioligand binding ([3H]LSD); conditions: for inhibition at 1 µM / inhibition at 0.1 µM: read-out: Inhibition of ligand binding, Serotonin 5-HT7 (percent inhibition of specific binding)
human recombinant serotonin (5-Hydroxytryptamine) 5-HT7 receptor, sequence (P34969 whole entry): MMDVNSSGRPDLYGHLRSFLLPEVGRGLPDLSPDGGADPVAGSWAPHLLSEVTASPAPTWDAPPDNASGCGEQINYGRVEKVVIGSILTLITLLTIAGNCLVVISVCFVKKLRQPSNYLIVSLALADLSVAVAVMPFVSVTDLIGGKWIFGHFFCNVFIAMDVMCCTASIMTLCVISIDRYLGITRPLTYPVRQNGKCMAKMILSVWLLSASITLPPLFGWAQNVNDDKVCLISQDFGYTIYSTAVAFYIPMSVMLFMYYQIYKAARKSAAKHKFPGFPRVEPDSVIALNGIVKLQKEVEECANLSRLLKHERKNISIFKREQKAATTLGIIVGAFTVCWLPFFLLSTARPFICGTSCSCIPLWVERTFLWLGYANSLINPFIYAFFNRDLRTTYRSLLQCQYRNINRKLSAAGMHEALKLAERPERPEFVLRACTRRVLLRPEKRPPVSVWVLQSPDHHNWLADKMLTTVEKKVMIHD
From the text: Receptor proteins were filtered and washed, the filters were then counted to determine [^3H]LSD specifically bound.

[3] = molecular target: T2, human recombinant adrenergic α2B receptor (Homo sapiens, UniProt P18089); test: Adrenergic α2B radioligand binding ([3H]Rauwolscine); conditions: compound at 1 μM
T2 construct: expressed in transfected cells; host or cells: Chinese hamster ovary (CHO-K1) cells
T2 sequence (P18089 1-450): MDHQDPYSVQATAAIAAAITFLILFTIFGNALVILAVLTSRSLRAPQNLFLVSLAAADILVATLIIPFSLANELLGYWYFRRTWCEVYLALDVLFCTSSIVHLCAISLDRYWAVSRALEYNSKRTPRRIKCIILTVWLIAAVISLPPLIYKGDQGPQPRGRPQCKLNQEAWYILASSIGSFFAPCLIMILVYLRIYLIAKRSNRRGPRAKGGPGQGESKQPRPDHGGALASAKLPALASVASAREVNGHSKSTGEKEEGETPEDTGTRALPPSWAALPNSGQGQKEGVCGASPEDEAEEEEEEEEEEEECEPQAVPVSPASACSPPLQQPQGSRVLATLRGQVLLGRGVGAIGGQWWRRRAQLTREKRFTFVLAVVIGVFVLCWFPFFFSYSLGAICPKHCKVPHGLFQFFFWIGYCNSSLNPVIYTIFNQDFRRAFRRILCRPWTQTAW
In short: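 Membranes from CHO-K1 cells expressing the receptor were incubated with 2.5 nM [3H]Rauwolscine for 60 min at 25 °C in Tris-HCl buffer pH 7.4 with MgCl2, EDTA and BSA. Non-specific binding was defined with 10 μM prazosin. Compounds were tested at ≤1 μM in 1% DMSO and read out as % inhibition of specific binding after filtration.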

[4] = molecular target: T3, human recombinant serotonin (5-Hydroxytryptamine) 5-HT6 receptor (Homo sapiens, UniProt P50406); test: Serotonin 5-HT6 radioligand binding ([3H]LSD); conditions: for inhibition at 0.1 µM: compound at 0.1 μM; for inhibition at 0.1 µM / inhibition at 1 µM: read-out: Inhibition of ligand binding, Serotonin 5-HT6 (percent inhibition of specific binding)
T3 construct: expressed in transfected cells; host or cells: human HeLa cells
T3 sequence (P50406 whole entry): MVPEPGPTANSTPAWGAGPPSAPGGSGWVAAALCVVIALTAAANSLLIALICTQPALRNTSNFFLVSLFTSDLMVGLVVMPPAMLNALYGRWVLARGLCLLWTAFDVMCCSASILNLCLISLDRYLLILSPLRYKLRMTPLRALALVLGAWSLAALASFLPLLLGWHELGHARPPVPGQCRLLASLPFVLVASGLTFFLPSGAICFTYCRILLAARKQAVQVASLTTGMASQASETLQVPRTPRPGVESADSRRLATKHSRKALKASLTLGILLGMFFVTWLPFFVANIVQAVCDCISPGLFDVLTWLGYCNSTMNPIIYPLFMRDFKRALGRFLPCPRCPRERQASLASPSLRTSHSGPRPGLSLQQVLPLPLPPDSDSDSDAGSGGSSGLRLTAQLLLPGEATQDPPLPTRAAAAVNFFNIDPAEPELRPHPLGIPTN
Description: Compounds of the invention were incubated with 1.5 nM [3H]Lysergic acid diethylamide (LSD) for 120 min. at 37° C. […] Receptor proteins were filtered and washed, the filters were then counted to determine [3H]LSD specifically bound. Compounds were screened at 1 μM or lower, using 1% DMSO as vehicle. Biochemical assay results are presented as the percent inhibition of specific binding in Table 10.

[5] = molecular target: T4, human recombinant serotonin (5-Hydroxytryptamine) 5-HT2A receptor (Homo sapiens, UniProt P28223); test: Serotonin 5-HT2A radioligand binding ([3H]Ketanserin); conditions: for inhibition at 0.1 µM: read-out: Inhibition of ligand binding, Serotonin 5-HT2A (percent inhibition of specific binding), compound at 0.1 μM; for inhibition at 1 µM: read-out: Inhibition of ligand binding, Serotonin 5-HT2A (percent inhibition of specific binding), compound at 1 μM
T4 construct: expressed in transfected cells; host or cells: Chinese hamster ovary (CHO-K1) cells
T4 sequence (P28223 whole entry): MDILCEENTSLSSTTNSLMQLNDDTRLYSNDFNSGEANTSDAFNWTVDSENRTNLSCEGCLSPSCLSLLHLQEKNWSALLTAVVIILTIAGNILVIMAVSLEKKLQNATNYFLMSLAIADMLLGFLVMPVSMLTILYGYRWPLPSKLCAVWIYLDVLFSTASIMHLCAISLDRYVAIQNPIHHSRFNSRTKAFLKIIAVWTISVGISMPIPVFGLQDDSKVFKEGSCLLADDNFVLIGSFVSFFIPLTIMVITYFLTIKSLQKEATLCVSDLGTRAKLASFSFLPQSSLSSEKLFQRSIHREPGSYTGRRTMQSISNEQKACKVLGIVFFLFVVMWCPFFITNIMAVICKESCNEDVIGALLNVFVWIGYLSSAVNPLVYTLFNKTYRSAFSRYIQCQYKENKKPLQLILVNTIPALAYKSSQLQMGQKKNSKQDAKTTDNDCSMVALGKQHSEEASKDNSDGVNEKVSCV
Description: Compounds of the invention were incubated with 0.5 nM [^3H]Ketanserin for 60 min. at 25° C. Non-specific binding was estimated in the presence of 1 μM Mianserin. Receptor proteins were filtered and washed, the filters were then counted to determine [^3H]Ketanserin specifically bound.

[6] = molecular target: human dopamine D2L receptor (Homo sapiens, UniProt P14416); test: Dopamine D2L radioligand binding ([3H]Spiperone); conditions: compound at 1 μM; for Inhibition of ligand binding, Dopamine D2L: 1 µM
human dopamine D2L receptor, sequence (P14416 whole entry): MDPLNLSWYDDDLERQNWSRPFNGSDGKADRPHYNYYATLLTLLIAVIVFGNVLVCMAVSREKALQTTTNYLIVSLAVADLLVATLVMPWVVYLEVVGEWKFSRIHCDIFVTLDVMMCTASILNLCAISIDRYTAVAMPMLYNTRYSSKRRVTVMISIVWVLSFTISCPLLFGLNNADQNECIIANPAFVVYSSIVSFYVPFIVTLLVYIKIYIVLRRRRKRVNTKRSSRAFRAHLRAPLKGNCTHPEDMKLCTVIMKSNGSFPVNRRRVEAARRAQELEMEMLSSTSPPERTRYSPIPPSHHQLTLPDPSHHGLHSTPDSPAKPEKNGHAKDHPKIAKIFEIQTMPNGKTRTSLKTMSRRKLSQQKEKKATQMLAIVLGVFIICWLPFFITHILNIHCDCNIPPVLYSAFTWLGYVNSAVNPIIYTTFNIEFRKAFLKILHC
From the text: Non-specific binding was estimated in the presence of […] Haloperidol. Receptor proteins were filtered and washed, the filters were then counted to determine [^3H]Spiperone specifically bound. […] Biochemical assay results are presented as the percent inhibition of specific binding in Table 9.

[7] = percent inhibition of specific binding
[8] = percent inhibition of specific binding, read-out: Inhibition of ligand binding, Adrenergic α2B
[9] = percent inhibition of specific binding, read-out: Inhibition of ligand binding, Adrenergic α2A
[10] = percent inhibition of specific binding, read-out: Inhibition of ligand binding, Dopamine D2L
[11] = read-out: Inhibition of ligand binding, Adrenergic α2A (percent inhibition of specific binding)
[12] = […] [3H]Rauwolscine, read-out: Inhibition of ligand binding, Adrenergic α2B (percent inhibition of specific binding)
[13] = […] [3H]Spiperone, read-out: Inhibition of ligand binding, Dopamine D2L (percent inhibition of specific binding)

| SMILES | Inhibition of ligand binding, Adrenergic α2A [1, 7] [%] | Inhibition of ligand binding, Serotonin 5-HT7 (percent inhibition of specific binding) ([2]; compound at 1 μM, 1 µM) [%] | inhibition at 1 µM [3, 8] [%] | inhibition at 0.1 µM [4] [%] | inhibition at 1 µM ([4]; compound at 1 μM) [%] | inhibition at 0.1 µM [5] [%] | inhibition at 1 µM [5] [%] | Inhibition of ligand binding, Dopamine D2L [6, 7] | Inhibition of ligand binding, Adrenergic α2B ([3]; percent inhibition of specific binding, 1 µM) [%] | Inhibition of ligand binding, Serotonin 5-HT6 (percent inhibition of specific binding) ([4]; compound at 1 μM, 1 µM) [%] | Inhibition of ligand binding, Serotonin 5-HT2A (percent inhibition of specific binding) ([5]; compound at 1 μM, 1 µM) [%] | inhibition at 1 µM [1, 9] [%] | inhibition at 1 µM ([2]; compound at 1 μM) [%] | inhibition at 1 µM [6, 10] [%] | inhibition at 1 µM [1, 11] [%] | inhibition at 1 µM [3, 12] [%] | inhibition at 1 µM [6, 13] [%] | Inhibition of ligand binding, Serotonin 5-HT7 (percent inhibition of specific binding) ([2]; compound at 0.1 μM, 0.1 µM) [%] | inhibition at 0.1 µM ([2]; compound at 0.1 μM) [%] |
| --- | --- | --- | --- | --- | --- | --- | --- | --- | --- | --- | --- | --- | --- | --- | --- | --- | --- | --- | --- |
| CC(=Cn1c2c(c3cc(Cl)ccc31)CN(C)CC2)c1ccc(Cl)cc1Cl (stereo in doubt) [Compound 111, (Z)-8-chloro-5-(2-(2,4-dichlorophenyl)prop-1-enyl)-2,3,4,5-tetrahydro-2-methyl-1H-pyrido[4,3-b]indole] | 101 | 102 | 90 | 71 | 94 | 86 | 99 | 27% and 29% |  |  |  |  |  |  |  |  |  |  |  |
| C/C(=C\n1c2c(c3cc(Cl)ccc31)CN(C)CC2)c1ccc(Cl)cc1Cl [Compound 210, (E)-8-chloro-5-(2-(2,4-dichlorophenyl)prop-1-enyl)-2-methyl-2,3,4,5-tetrahydro-1H-pyrido[4,3-b]indole] | 79 | 65 |  |  |  |  |  | 52% | 102 | 76 | 98 |  |  |  |  |  |  |  |  |
| CN1CCc2c(c3cc(Cl)ccc3n2/C=C(\c2ccc(F)cc2)C2CC2)C1 [Compound 203, (Z)-8-chloro-5-(2-cyclopropyl-2-(4-fluorophenyl)vinyl)-2-methyl-2,3,4,5-tetrahydro-1H-pyrido[4,3-b]indole] |  |  | 108 | 97 | 103 | 98 | 100 | 78% |  |  |  | 100 | 95 | 72 |  |  |  |  |  |
| Cc1ccc2c(c1)c1c(n2C#Cc2ccc(F)cc2)CCN(C)C1 [Compound No. 478, 5-((4-fluorophenyl)ethynyl)-2,8-dimethyl-2,3,4,5-tetrahydro-1H-pyrido[4,3-b]indole] |  |  |  |  | 97 |  | 99 |  |  |  |  |  | 96 |  | 96 | 106 | 89 |  |  |
| Cc1ccc2c(c1)c1c(n2C/C(=C/C(=O)O)c2ccc(F)cc2)CCN(C)C1 [Compound No. 352, (E)-4-(2,8-dimethyl-3,4-dihydro-1H-pyrido[4,3-b]indol-5(2H)-yl)-3-(4-fluorophenyl)but-2-enoic acid] |  |  |  |  | 32 |  | 84 |  |  |  |  |  | 52 |  | 34 | 47 | 0 |  |  |
| Cc1ccc2c(c1)c1c(n2/C=C(\CC(=O)O)c2ccc(F)cc2)CCN(C)C1 [Compound 209, (E)-4-(2,8-dimethyl-3,4-dihydro-1H-pyrido[4,3-b]indol-5(2H)-yl)-3-(4-fluorophenyl)but-3-enoic acid] |  |  | 59 |  | 41 |  | 93 |  |  |  |  | 30 | 36 | 7 |  |  |  |  |  |
| COc1ccc(C#Cn2c3c(c4cc(Cl)ccc42)CN(C)CC3)cc1F [Compound No. 477, 8-chloro-5-((3-fluoro-4-methoxyphenyl)ethynyl)-2-methyl-2,3,4,5-tetrahydro-1H-pyrido[4,3-b]indole] |  |  |  |  | 89 |  | 95 |  |  |  |  |  | 65 |  | 97 | 107 | 25 |  |  |
| C/C(=C/n1c2c(c3cc(Cl)ccc31)CN(C)CC2)c1ccccc1F [Compound 212, (Z)-8-chloro-5-(2-(2-fluorophenyl)prop-1-enyl)-2-methyl-2,3,4,5-tetrahydro-1H-pyrido[4,3-b]indole] |  |  | 105 |  | 97 |  | 91 |  |  |  |  | 88 | 98 | 32 |  |  |  |  |  |
| CN1CCc2c(c3cc(Cl)ccc3n2CC(O)(c2ccc(F)cc2)C2CC2)C1 (stereo not drawn) [Compound 82, 2-(8-chloro-1,2,3,4-tetrahydro-2-methylpyrido[4,3-b]indol-5-yl)-1-cyclopropyl-1-(4-fluorophenyl)ethanol] |  |  | 99 | 90 | 103 | 92 | 100 | 45% |  |  |  | 96 | 93 | 39 |  |  |  | 95 | 86 |
| CN1CCc2c(c3cc(Cl)ccc3n2CC(C)(O)c2ccc(F)cc2)C1 (stereo not drawn) [Compound 45, 1-(8-chloro-1,2,3,4-tetrahydro-2-methylpyrido[4,3-b]indol-5-yl)-2-(4-fluorophenyl)propan-2-ol] |  |  | 109 | 48 | 94 | 86 | 99 |  |  |  |  | 89 | 92 | 34 |  |  |  |  |  |
| C/C(=C\n1c2c(c3cc(Cl)ccc31)CN(C)CC2)c1ccccc1 [compound 106, (E)-8-chloro-2,3,4,5-tetrahydro-2-methyl-5-(2-phenylprop-1-enyl)-1H-pyrido[4,3-b]indole] |  |  | 114 |  | 104 |  | 98 |  |  |  |  | 93 | 98 | 90 |  |  |  |  |  |
| C/C(=C\n1c2c(c3cc(Cl)ccc31)CN(C)CC2)c1ccncc1 [Compound 90, (E)-8-chloro-2,3,4,5-tetrahydro-2-methyl-5-(2-(pyridin-4-yl)prop-1-enyl)-1H-pyrido[4,3-b]indole] |  |  | 104 | 102 | 103 | 97 | 100 | 98% |  |  |  | 95 |  | 93 |  |  |  |  | 82 |
